Data on three molecules can be found in EP0138358A1, “The preparation and use of 2-[2-(1,4-benzodioxanyl)]-2-imidazoline in therapy” (Farmos-Yhtyma Oy, priority 1983, dated 1985).

Each structure is given as a SMILES string.

Holding throughout (assay type): in vivo
For data set [1], the system named is rats. Nature of the data set: Sedative effect (loss of the righting reflex) in rats. Particulars: 10 rats; dose of 0.5 mg/kg. The protocol: (§1) (C) The following tests concerning the sedative effect of 4-(2,6-dimethylbenzyl)imidazole and the inhibition of this effect with compound (I) were carried out in rats.
A dose of 0.5 mg/kg of 4-(2,6-dimethylbenzyl) imidazole was injected into 10 rats. This dose induced loss of the righting reflex for 1 h.

Another data set relates to Calves (8) and Cows (7). The experiment in a line: Awakening from detomidine-induced sedation, calves and cows. To be noted: detomidine 0.04-0.06 mg/kg i.m., compound (I) i.v. after 30 min, same dose as detomidine. On the procedure:
(§2) Trials were carried out as follows: • (A) A dose of 0.04-0.06 mg/kg of detomidine was injected i.m. into the test animals. After exactly 30 min. compound (I) was given intravenously. The awakening of the animal or its recovery from the sedation was then observed. Calves (8) and Cows (7) recovered from detomidine-induced sedation in 2 to 5 minutes from the injection of compound (I). Horses (4) awoke in 5 to 10 min. The awakening effect of compound (I) was found stable for both species. […] For the calves and cows, the dose of compound (I) was the same as the dose of detomidine. For the horses, the dose of compound (I) was five times greater than that of detomidine. • (B) A dose of 2 mg/kg of xylazine was injected i.m. into 10 dogs. This injection induced sedation which lasted for 0.5 - 1 hr. During this time the dogs were able to walk only with difficulty.

The subject of a further data set is Horses (4). Nature of the data set: Awakening from detomidine-induced sedation, horses. Particulars: detomidine 0.04-0.06 mg/kg i.m., compound (I) i.v. after 30 min, dose five times greater than that of detomidine. On the procedure:
as §2

The next data set relates to dogs. Nature of the data set: Awakening from xylazine-induced sedation in dogs. To be noted: compound (I) 0.1 - 0.3 mg/kg i.v. 20 min. after 2 mg/kg of xylazine. The protocol: In other experiments compound (I) was given at a dose of 0.1 - 0.3 mg/kg i.v. 20 min. after the injection of 2 mg/kg of xylazine. The awakening of the dogs and their recovery from the sedation was observed. The dogs recovered from the xylazine-induced sedation in 2 - 3 minutes after the administration of compound (I).

Data set [2] relates to rats. The experiment in a line: Inhibition of the sedative effect of 4-(2,6-dimethylbenzyl)imidazole in rats (spontaneous locomotor activity, activity meter). To be noted: compound (I) 1-3 mg/kg i.v. or i.p., 15 minutes after 4-(2,6-dimethylbenzyl)imidazole. The protocol:
as §1
In other tests, compound (I) was given i.v. or i.p. to rats at a dose of 1-3 mg/kg, 15 minutes after the administration of 4-(2,6-dimethylbenzyl)imidazole. The recovery of the animals from the sedation was observed by measuring their spontaneous locomotor activity with an activity meter.

In the next data set the test system is horses and cattle. The experiment in a line: Sedative and analgesic effect of detomidine in horses and cattle. To be noted: i.m. or i.v. An excerpt:
This invention relates to the preparation of 2-[2-(1,4-benzodioxanyl)]-2-imidazoline, and to its use. Detomidine, which has the formula [drawing 1] is a known compound with sedative and analgesic effect in animals. The potency and the duration of the effect can be regulated by the dosage. The compound is very potent; dosages as small as […] given by injection provide a clinical response. Detomidine is used in veterinary medicine especially in the handling of horses and cattle (pharmacological restraint). The animal is sedated before investigation, treatment and difficult medical operations. Even small surgical operations cannot be carried out without the use of a sedative agent.
The analgesic effect is dose dependent. […] Table 1: The effect of detomidine in horses and cattle. Dosage i.m. or i.v.

Regarding `Cc1cccc(C)c1Cc1c[nH]cn1` [4-(2,6-dimethylbenzyl) imidazole, 4-(2,6-dimethylbenzyl)imidazole], the “duration of loss of the righting reflex” value in the data set on rats [1] is 1 h.
As for `c1ccc2c(c1)OCC(C1=NCCN1)O2` (stereo not drawn) [compound (I), 2-[2-(1,4-benzodioxanyl)]-imidazoline], in the data set on Calves (8) and Cows (7), the awakening effect entry was “stable” and the side-effects result is recorded as “No side-effects were observed”. Further, in the data set on Horses (4), the awakening effect entry is given as “stable” and the side-effects result is recorded as “No side-effects were observed”. Also, in the data set on dogs, the awakening effect result was “stable” and the side-effects entry is listed as “No side-effects were observed”. Further, in the data set on rats [2], the “counteraction of the sedative effect of 4-(2,6-dimethylbenzyl)imidazole” value was “fully counteract” and the “time to counteract the sedative effect of 4-(2,6-dimethylbenzyl)imidazole after the administration of compound (I)” value lay in the range of 1 to 5 min.
For the molecule `Cc1cccc(Cc2c[nH]cn2)c1C` [detomidine, Detomidine], in the data set on horses and cattle (dose 20-40 µg/kg), the “Delay before the effect begins” value was in the range of 3 to 5 min, the Effect entry is “easy to handle; short effect” and the Other effects entry is recorded as “slight stagger-ing”. In the data set with horses and cattle (dose 40-80 µg/kg), the “Delay before the effect begins” value lay in the range of 2 to 5 min; the Effect result is recorded as “strong effect”; the Other effects result is on record as “stagger-ing, sweating pilo-erection, muscular tremor”. Further, in the data set with horses and cattle (dose 80-150 µg/kg), the “Delay before the effect begins” value is 1 to 5 min; the “Duration of the effect” value fell in the range of 2 to 6 h; the Other effects entry is “Strong stagger-ing, pilo-erection, sweating, diuresis”.
